System: L6
Assay: Inhibitory concentration against induction of Hexokinase II-luci signal in the reporter cell line
Format: functional, cell-based
Conditions: Rattus norvegicus

Question: `C/C=C/C1Oc2c(-c3ccccc3)cn(O)c(=O)c2C2C(C)CCCC12` (stereo unspecified) was tested. Which IC50 did it give?
Answer: Its IC50 is 10 µM.

Source: ChEMBL document CHEMBL1136703, “Leporin B: a novel hexokinase II gene inducing agent from an unidentified fungus” (Bioorg Med Chem Lett, 2003)
